Where “and” joins values, the source holds several entries; their conditions need not be identical. Identical values can stand only once. Inconclusive results and toxic doses are left out. Rule for the calls: active = survival T/C of 150% or more; inactive = T/C below 125% in these data.
Test system: P388 leukemia ip, CD2F1 mice, survival T/C
Assay: NCI In Vivo Anticancer Drug Screen. Data for tumor model P388 Leukemia (intraperitoneal) in CD2F1 (CDF1) mice
Details: endpoint: median survival time, higher = longer survival
Procedure, shortened: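 Mice carrying the transplanted tumor received test compound or vehicle. Survival was recorded in each group, and the value is the treated-group measurement divided by that of the vehicle-treated control group.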

[1] = dose: 30.0 mg/kg/injection, schedule: Q01DX005 (ip), vehicle: saline with Tween-80
[2] = dose: 60.0 mg/kg/injection, schedule: Q01DX005 (ip), vehicle: saline with Tween-80
[3] = dose: 120.0 mg/kg/injection, schedule: Q01DX005 (ip), vehicle: saline with Tween-80
[4] = dose: 50.0 mg/kg/injection, schedule: Q01DX005 (ip), vehicle: saline with Tween-80
[5] = dose: 50.0 mg/kg/injection, schedule: Q01DX009 (ip), vehicle: saline with Tween-80
[6] = dose: 100.0 mg/kg/injection, schedule: Q01DX009 (ip), vehicle: saline with Tween-80

Measured: T/C

CCOc1nc(C)c(C)c(-c2ccc(OC)c(OC)c2OCc2ccccc2)c1C#N
inactive: dose: 0.05 mg/kg/injection, schedule: Q01DX009 (ip), vehicle: other 117 % of control | dose: 0.1 mg/kg/injection, schedule: Q01DX009 (ip), vehicle: other 96 % of control | dose: 0.2 mg/kg/injection, schedule: Q01DX009 (ip), vehicle: other 101 % of control | dose: 0.4 mg/kg/injection, schedule: Q01DX009 (ip), vehicle: other 100 % of control and 107 % of control | dose: 0.8 mg/kg/injection, schedule: Q01DX009 (ip), vehicle: other 110 % of control | dose: 1.6 mg/kg/injection, schedule: Q01DX009 (ip), vehicle: other 117 % of control | dose: 3.2 mg/kg/injection, schedule: Q01DX009 (ip), vehicle: other 115 % of control | dose: 6.4 mg/kg/injection, schedule: Q01DX009 (ip), vehicle: DMSO 103 % of control | dose: 6.4 mg/kg/injection, schedule: Q01DX009 (ip), vehicle: other 110 % of control | dose: 12.8 mg/kg/injection, schedule: Q01DX009 (ip), vehicle: DMSO 94 % of control | dose: 25.6 mg/kg/injection, schedule: Q01DX009 (ip), vehicle: DMSO 94 % of control | dose: 51.2 mg/kg/injection, schedule: Q01DX009 (ip), vehicle: DMSO 97 % of control | dose: 100.0 mg/kg/injection, schedule: Q01DX009 (ip), vehicle: other 104 % of control | dose: 102.0 mg/kg/injection, schedule: Q01DX009 (ip), vehicle: DMSO 94 % of control | dose: 200.0 mg/kg/injection, schedule: Q01DX009 (ip), vehicle: other 115 % of control | dose: 400.0 mg/kg/injection, schedule: Q01DX009 (ip), vehicle: other 100 % of control

COc1cc(C2c3cc4c(cc3OC(=O)C2C(C)=O)OCO4)cc(OC)c1OC (stereo not drawn)
inactive: [1] 89 % of control and 90 % of control | [2] 89 % of control (2×) and 93 % of control | [3] 107 % of control and 110 % of control

C(=N\N=C1c2ccccc2-c2ccccc21)/c1ccc2ccc3cccc4ccc1c2c34
inactive: dose: 12.5 mg/kg/injection, schedule: Q01DX005 (ip), vehicle: saline with Tween-80 93 % of control | dose: 25.0 mg/kg/injection, schedule: Q01DX005 (ip), vehicle: saline with Tween-80 95 % of control | [1] 88 % of control | [4] 91 % of control | [2] 86 % of control | [3] 88 % of control | dose: 240.0 mg/kg/injection, schedule: Q01DX005 (ip), vehicle: saline with Tween-80 89 % of control

CC(C)CCCN(CCCC(C)C)CC(O)c1cc2c(c3ccccc13)CCCC2 (stereo not drawn)
inactive: [4] 113 % of control | dose: 100.0 mg/kg/injection, schedule: Q01DX005 (ip), vehicle: saline with Tween-80 103 % of control | dose: 200.0 mg/kg/injection, schedule: Q01DX005 (ip), vehicle: saline with Tween-80 113 % of control

CN1C(=O)C(=Cc2ccc(O)cc2)C(=O)N(C)C1=O
inactive: [5] 112 % of control and 113 % of control | [6] 118 % of control and 123 % of control | dose: 400.0 mg/kg/injection, schedule: Q01DX009 (ip), vehicle: saline with Tween-80 86 % of control

O=C1OC2C=CC=CN2C(=O)C1Cc1ccccc1 (stereo not drawn)
inactive: dose: 60.0 mg/kg/injection, schedule: Q01DX005 (ip), vehicle: Klucel (hydroxypropylcellulose) (HPC) 105 % of control | dose: 120.0 mg/kg/injection, schedule: Q01DX005 (ip), vehicle: Klucel (hydroxypropylcellulose) (HPC) 102 % of control | dose: 240.0 mg/kg/injection, schedule: Q01DX005 (ip), vehicle: Klucel (hydroxypropylcellulose) (HPC) 100 % of control

CC(C)(C)N=O
inactive: dose: 25.0 mg/kg/injection, schedule: Q01DX009 (ip), vehicle: saline with Tween-80 104 % of control | [5] 103 % of control | dose: 100.0 mg/kg/injection, schedule: Q01DX001 (ip), vehicle: saline with Tween-80 100 % of control and 106 % of control | [6] 111 % of control | dose: 200.0 mg/kg/injection, schedule: Q01DX001 (ip), vehicle: saline with Tween-80 100 % of control and 106 % of control and 109 % of control | dose: 400.0 mg/kg/injection, schedule: Q01DX001 (ip), vehicle: saline with Tween-80 105 % of control and 119 % of control | dose: 800.0 mg/kg/injection, schedule: Q01DX001 (ip), vehicle: saline with Tween-80 89 % of control

COc1cc2c(cc1O)CCCCC2O (stereo not drawn)
inactive: dose: 6.25 mg/kg/injection, schedule: Q01DX009 (ip), vehicle: DMSO 94 % of control | dose: 12.5 mg/kg/injection, schedule: Q01DX009 (ip), vehicle: DMSO 102 % of control | dose: 25.0 mg/kg/injection, schedule: Q01DX009 (ip), vehicle: DMSO 87 % of control | dose: 50.0 mg/kg/injection, schedule: Q01DX009 (ip), vehicle: Klucel (hydroxypropylcellulose) (HPC) 94 % of control | dose: 100.0 mg/kg/injection, schedule: Q01DX009 (ip), vehicle: Klucel (hydroxypropylcellulose) (HPC) 97 % of control | dose: 200.0 mg/kg/injection, schedule: Q01DX009 (ip), vehicle: Klucel (hydroxypropylcellulose) (HPC) 94 % of control
